Laboratory results taken from patent US12577231B2, “Androgen receptor PROTACS” (GlaxoSmithKline Intellectual Property Development Limited, priority 2023, dated 2026).

Biological target: T1, Androgen Receptor dual T878A/L702H mutant protein (Homo sapiens, UniProt P10275, L702H/T878A)
T1 construct: host or cells: MDA-PCa-2b
T1 sequence (P10275 1-920 L702H/T878A): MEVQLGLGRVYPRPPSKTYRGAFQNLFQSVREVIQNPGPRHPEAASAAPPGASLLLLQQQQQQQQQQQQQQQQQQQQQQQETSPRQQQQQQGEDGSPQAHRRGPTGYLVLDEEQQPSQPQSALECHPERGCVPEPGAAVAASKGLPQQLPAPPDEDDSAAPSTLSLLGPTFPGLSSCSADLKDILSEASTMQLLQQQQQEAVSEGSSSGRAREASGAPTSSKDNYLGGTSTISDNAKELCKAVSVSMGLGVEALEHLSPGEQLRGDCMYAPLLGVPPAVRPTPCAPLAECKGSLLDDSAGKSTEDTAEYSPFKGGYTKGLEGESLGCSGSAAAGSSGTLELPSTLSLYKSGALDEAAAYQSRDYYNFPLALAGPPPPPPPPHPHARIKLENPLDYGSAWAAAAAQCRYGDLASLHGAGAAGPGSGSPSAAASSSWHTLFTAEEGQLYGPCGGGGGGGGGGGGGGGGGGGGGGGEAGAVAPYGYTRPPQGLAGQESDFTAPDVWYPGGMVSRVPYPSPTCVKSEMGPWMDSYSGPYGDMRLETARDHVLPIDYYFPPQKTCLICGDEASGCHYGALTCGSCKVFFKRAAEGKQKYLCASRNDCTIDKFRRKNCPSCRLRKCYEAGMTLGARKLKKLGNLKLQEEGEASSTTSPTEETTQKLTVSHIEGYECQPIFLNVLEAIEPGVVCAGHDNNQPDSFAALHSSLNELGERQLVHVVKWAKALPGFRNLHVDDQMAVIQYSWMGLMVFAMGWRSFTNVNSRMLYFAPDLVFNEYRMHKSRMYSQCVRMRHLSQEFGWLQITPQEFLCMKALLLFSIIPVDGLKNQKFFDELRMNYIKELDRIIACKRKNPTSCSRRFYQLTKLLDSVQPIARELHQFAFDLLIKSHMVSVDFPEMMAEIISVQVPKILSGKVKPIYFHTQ
Test: Dual Mutant (T878A/L702H) Androgen Receptor Degradation Assay (HTRF, MDA-PCa-2b cells)
Type: cell-based
Details: 18 h, 18 h incubation, read-out: mean asymptote max
Procedure, shortened: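 PROTACs tested as 11-point, 3-fold dilutions on 10,000 cells for 18 h at 37 °C. Remaining AR read by HTRF (665/620 nm ratio) after lysis, normalised to DMSO-treated cells (0%) and cell-free medium (100%). Relative DC50 from 4-parameter fit inflection, absolute DC50 interpolated at 50% degradation; Dmax is maximum observed degradation.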

Row | SMILES | Dmax [%]
1 | COc1cc(O[C@H]2C(C)(C)[C@H](NC(=O)c3ccc(N4CCC(CN5CCC(n6ncc7c(N8CCC(=O)NC8=O)cccc76)CC5)CC4)cc3)C2(C)C)ccc1C#N [Example 15, N-((1r,3r)-3-(4-Cyano-3-methoxyphenoxy)-2,2,4,4-tetramethylcyclobutyl)-4-(4-((4-(4-(2,4-dioxotetrahydropyrimidin-1(2H)-yl)-1H-indazol-1-yl)piperidin-1-yl)methyl)piperidin-1-yl)benzamide] | ≥ 50
2 | COc1cc(O[C@H]2C(C)(C)[C@H](NC(=O)c3ccc(N4CCC(CN5CCC(n6ccc7c(N8CCC(=O)NC8=O)cccc76)CC5)CC4)cc3)C2(C)C)ccc1C#N [Example 16, N-((1r,3r)-3-(4-Cyano-3-methoxyphenoxy)-2,2,4,4-tetramethylcyclobutyl)-4-(4-((4-(4-(2,4-dioxotetrahydropyrimidin-1(2H)-yl)-1H-indol-1-yl)piperidin-1-yl)methyl)piperidin-1-yl)benzamide] | ≥ 50
